Measured values: ChEMBL document CHEMBL1133190, “SPR biosensor studies of the direct interaction between 27 drugs and a liposome surface: correlation with fraction absorbed in humans” (J Med Chem, 2000)

Columns and labels:
Liposome [1] = test: (§1) Binding to POPC (palmitoyl-oleolyl-phosphatidyl-choline) liposomes using biosensor system; type: functional
Liposome [2] = test: (§2) Binding to POPC/GMI liposomes using biosensor system; type: functional
[3] = Estimation of fraction absorbed (Fa) in the human intestine using biosensor technology.; type: ADME, organism-based; details: in vivo
Liposome [4] = test: as §2
Liposome [5] = test: as §1

C=CCOc1ccccc1OCC(O)CNC(C)C (stereo unspecified)
Other (Liposome [1]): 120 | Other (Liposome [2]): 277

COc1ccc(CCN(C)CCCC(C#N)(c2ccc(OC)c(OC)c2)C(C)C)cc1OC (stereo unspecified)
Fa [3]: 100%

CC(C)NCC(O)COc1ccc(CC(N)=O)cc1 (stereo unspecified)
Other (Liposome [1]): 24 | Other (Liposome [2]): 38

CCN1CCCC1CNC(=O)c1cc(S(N)(=O)=O)ccc1OC (stereo unspecified)
Other (Liposome [1]): 47 | Other (Liposome [2]): 78

OC[C@H]1OC(O)[C@H](O)[C@@H](O)[C@@H]1O (stereo partly specified) [DEXTROSE]
Fa [3]: 100% | Other (Liposome [1]): 18 | Other (Liposome [2]): 10

O=C(O)c1cc(/N=N/c2ccc(S(=O)(=O)Nc3ccccn3)cc2)ccc1O
Other (Liposome [4]): 348 | Other (Liposome [5]): 241

COCCc1ccc(OCC(O)CNC(C)C)cc1 (stereo unspecified)
Other (Liposome [4]): 179 | Other (Liposome [5]): 82

OC[C@H]1O[C@@H](O[C@@H]2[C@@H](CO)O[C@](O)(CO)[C@H]2O)[C@H](O)[C@@H](O)[C@H]1O
Other (Liposome [1]): 22 | Other (Liposome [2]): 29

CC(C)NCC(O)COc1cccc2[nH]ccc12 (stereo unspecified)
Other (Liposome [1]): 142 | Other (Liposome [2]): 314

CC(C(=O)O)c1cccc(C(=O)c2ccccc2)c1 (stereo unspecified) [KETOPROFEN]
Fa [3]: 100% | Other (Liposome [1]): 62 | Other (Liposome [2]): 101

Cc1cc(=O)n(-c2ccccc2)n1C [ANTIPYRINE]
Fa [3]: 100% | Other (Liposome [1]): 19 | Other (Liposome [2]): 12

CC(C)NCC(O)COc1cccc2ccccc12 (stereo unspecified) [PROPRANOLOL]
Fa [3]: 100% | Other (Liposome [1]): 683 | Other (Liposome [2]): 839

CC1(C)S[C@@H]2[C@H](NC(=O)[C@H](N)c3ccc(O)cc3)C(=O)N2[C@H]1C(=O)O [AMOXICILLIN]
Fa [3]: 90% | Other (Liposome [1]): 17 | Other (Liposome [2]): 9

O=C(O)P(=O)(O)O
Other (Liposome [4]): 62 | Other (Liposome [5]): 32

NC(N)=O [UREA]
Fa [3]: 100% | Other (Liposome [4]): 26 | Other (Liposome [5]): 23

CC(C)(C)NCC(O)c1cc(O)cc(O)c1 (stereo unspecified)
Other (Liposome [4]): 117 | Other (Liposome [5]): 47

CN1CC(=O)NC1=N [CREATININE]
Fa [3]: 100% | Other (Liposome [4]): 13 | Other (Liposome [5]): 22

C=CCc1ccccc1OCC(O)CNC(C)C (stereo unspecified)
Other (Liposome [1]): 297 | Other (Liposome [2]): 480

NS(=O)(=O)c1cc(C(=O)O)c(NCc2ccco2)cc1Cl [FUROSEMIDE]
Fa [3]: 50% | Other (Liposome [1]): 56 | Other (Liposome [2]): 92

OC[C@@H](O)[C@@H](O)[C@H](O)[C@H](O)CO
Other (Liposome [1]): 22 | Other (Liposome [2]): 29

COc1ccc2cc([C@H](C)C(=O)O)ccc2c1 [NAPROXEN]
Fa [3]: 100% | Other (Liposome [4]): 183 | Other (Liposome [5]): 109

NC(=O)N1c2ccccc2C=Cc2ccccc21 [CARBAMAZEPINE]
Fa [3]: 100% | Other (Liposome [1]): 70 | Other (Liposome [2]): 144

OC[C@H]1O[C@H](OC[C@H]2O[C@H](O[C@]3(CO)O[C@H](CO)[C@@H](O)[C@@H]3O)[C@H](O)[C@@H](O)[C@@H]2O)[C@H](O)[C@@H](O)[C@H]1O
Other (Liposome [1]): 24 | Other (Liposome [2]): 34

CNCCCN1c2ccccc2CCc2ccccc21 [DESIPRAMINE]
Fa [3]: 100% | Other (Liposome [1]): 1010 | Other (Liposome [2]): 1200

NS(=O)(=O)c1cc2c(cc1Cl)NCNS2(=O)=O [HYDROCHLOROTHIAZIDE]
Fa [3]: 55% | Other (Liposome [1]): 60 | Other (Liposome [2]): 95

CC(C)C[C@H](N)C(=O)O [LEUCINE]
Fa [3]: 100% | Other (Liposome [4]): 11 | Other (Liposome [5]): 18

NC[C@H]1CC[C@H](C(=O)O)CC1
Other (Liposome [1]): 20 | Other (Liposome [2]): 14
